Literature values, collected in US20070298000A1, “High SPF transparent or translucent naturally derived, cytoprotective, UV radiation resistant compositions” (priority 2006, published 2007).

Experiments:
[1] = tested on: uterine wet weight, cell height, cell proliferation; settings: cell proliferation assays

| Compound | effect on growth of cancer cells / activity in cells (cancer cells) | estrogenicity [1] |
| --- | --- | --- |
| CCCCC(CC)COC(=O)c1ccc(N(C)C)cc1 (stereo not drawn) [octyl-dimethyl-PABA] | made cancer cells grow more rapidly | – |
| Cc1ccc(C=C2C(=O)C3(C)CCC2C3(C)C)cc1 (stereo not drawn) [4-methyl-benzylidene camphor, 3-(4-methylbenxylidene) camphor] | made cancer cells grow more rapidly | highly estrogenic |
| CC1CC(OC(=O)c2ccccc2O)CC(C)(C)C1 (stereo not drawn) [homosalate] | made cancer cells grow more rapidly | – |
| COc1ccc(C(=O)c2ccccc2)c(O)c1 [benzophenone-s] | made cancer cells grow more rapidly | highly estrogenic |
